In ChEMBL document CHEMBL3879898, “Substituted pyrazolyl compounds for the treatment of inflammationantiinflammatory agents; rheumatic diseases; anticancer agents” (2007):
pIC50: −log10 of the molar value.

Each compound was assayed against T1, Inhibitor of nuclear factor kappa-B kinase subunit beta (Homo sapiens, UniProt O14920) (assay: Inhibition of human recombinant C-terminal FLAG-epitope-tagged IKK2 expressed in baculovirus infected insect cells using biotinylated IkappaBalpha peptide as substrate in presence of [gamma-33P]-ATP after 30 mins by resin-based scintillation counting method).
T1 sequence (O14920 whole entry): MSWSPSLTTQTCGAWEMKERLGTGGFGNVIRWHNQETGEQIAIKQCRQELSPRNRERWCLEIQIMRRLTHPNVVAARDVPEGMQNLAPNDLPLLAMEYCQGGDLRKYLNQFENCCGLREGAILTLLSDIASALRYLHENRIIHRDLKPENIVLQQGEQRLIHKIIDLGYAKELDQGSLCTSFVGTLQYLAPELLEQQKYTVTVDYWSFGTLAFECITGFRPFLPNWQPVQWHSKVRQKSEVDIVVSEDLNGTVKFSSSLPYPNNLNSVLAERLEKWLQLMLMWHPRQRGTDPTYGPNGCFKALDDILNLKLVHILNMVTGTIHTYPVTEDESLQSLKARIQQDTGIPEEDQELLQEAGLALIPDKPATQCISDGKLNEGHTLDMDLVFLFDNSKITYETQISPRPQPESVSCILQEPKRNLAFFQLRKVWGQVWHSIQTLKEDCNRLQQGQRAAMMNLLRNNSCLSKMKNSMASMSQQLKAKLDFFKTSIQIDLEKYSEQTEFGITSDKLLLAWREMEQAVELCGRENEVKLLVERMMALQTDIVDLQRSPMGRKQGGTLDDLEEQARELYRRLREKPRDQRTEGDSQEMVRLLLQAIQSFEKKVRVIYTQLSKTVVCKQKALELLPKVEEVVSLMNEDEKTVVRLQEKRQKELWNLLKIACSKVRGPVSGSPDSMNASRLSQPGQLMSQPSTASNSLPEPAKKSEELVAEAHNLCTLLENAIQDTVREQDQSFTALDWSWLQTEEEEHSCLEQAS

Compound | pIC50
CC(=O)N1Cc2c(C(N)=O)nn(-c3ccc(F)cc3)c2-c2cc(NC(=O)c3cccnc3Cl)ccc21 | > 6.00
CC(=O)N1Cc2c(C(N)=O)nn(-c3ccc4c(c3)OCO4)c2-c2cc(NC(=O)c3cccnc3Cl)ccc21 | > 6.00
NC(=O)c1nn(-c2ccc3c(c2)OCO3)c2c1COc1ccc(NC(=O)c3cccnc3Cl)cc1-2 | ≥ 6.00
